Source: US4226610A, “Herbicidal compounds, preparation thereof and herbicides containing the same” (Meiji Selka Kaisha, Ltd., priority 1978, dated 1980)
Where a name gives a salt, the structure may show the parent alone.

What was measured:
Japanese bush cranberry = assay: Experiment 3 foliar application to naturally growing shrubs; format: in vivo, Viburnum dilatatum Thunb.; settings: after 3 months; further: key: -: no reproduction, namely complete suppression of reproduction; ±: remarkable suppression of reproduction; +: considerable suppression of reproduction; ++: medium supprestion of reproduction; +++: no suppression of reproduction
Outline: (§1)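 Naturally growing shrubs were sprayed on the foliage at 150 liter per 10 are. Plant kill was then scored from 0 to 5 at 1 and 3 months, and reproduction was graded − to +++ at 3 months.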

torch azalea = assay: as above; format: in vivo, Rhododendoron Kaempferi Planch.; settings: after 3 months; further: key: -: no reproduction, namely complete suppression of reproduction; ±: remarkable suppression of reproduction; +: considerable suppression of reproduction; ++: medium supprestion of reproduction; +++: no suppression of reproduction
Outline: as §1

oak = assay: as above; format: in vivo, Quercus serrata Thunb; settings: after 3 months; further: key: -: no reproduction, namely complete suppression of reproduction; ±: remarkable suppression of reproduction; +: considerable suppression of reproduction; ++: medium supprestion of reproduction; +++: no suppression of reproduction
Outline: as §1

yabugarashi = assay: Experiment 1 foliar application to naturally growing weeds; format: in vivo, Cayratia japonica Houtt.; settings: 4 months, monosodium salt; further: key: -: no reproduction, namely complete suppression of reproduction; ±: remarkable suppression of reproduction; +: considerable suppression of reproduction; ++: medium supprestion of reproduction; +++: no suppression of reproduction
Outline: (§2)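 Naturally growing weeds receive a foliar spray of compound at prescribed concentrations, 150 liter per 10 are, containing 0.1% octylphenyl polyoxyethanol. Kill is rated 0 (no effect) to 5 (death) after 21 days. Regrowth is rated (-) to (+++) after 4 months, or 2 months for cockspar grass.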

Japanese prickly ash = assay: Experiment 3 foliar application to naturally growing shrubs; format: in vivo, Xanthoxylum piperitum DC.; settings: after 3 months
Outline: as §1

azumanezasa = assay: Experiment 1 foliar application to naturally growing weeds; format: in vivo, Pleioblastus Chino Makino; settings: 4 months
Outline: (§3)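 Dilute compounds to prescribed concentrations; add 0.1% octylphenyl polyoxyethanol; spray foliage of in-situ weeds at 150 liter per 10 are. Score killing 0–5 on day 21. Score reproduction (-) to (+++) at month 2 (cockspar grass) or month 4 (chigaya, azumanezasa, warunasubi).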

chestnut = assay: Experiment 2 foliar application in Japanese cypress afforested land; format: in vivo, Castanea crenata Sieb et Zucc.; settings: 0.063%; after 30 days; monosodium salt
Protocol: The detail of the assessment made in the following Experiments of the invention was as follows:
The compounds of the invention and other compounds listed in Table 4. were diluted to prescribed concentrations and sprayed to shrubs by foliar application in a Japanese cypress afforested land in an amount of 150 liter per 10 are.
After 30 days and 3 months, the killing index (0, no effect; 5, death) was determined.
The heights of plants were 50-70 cm. for Japanese cypress, about 50 cm. for chestnut, 50-90 cm. for miyakozasa, about 100 cm. for eulalia and 70-100 cm. for kumaichigo, respectively.

eulalia = assay: as above; format: in vivo, Miscanthus sinensis Andress.; design: key: 0 = no effect, 5 = death; settings: 0.125%; after 30 days; monosodium salt
Outline: (§4)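 Field foliar spray on shrubs in Japanese cypress afforested land at 150 liter per 10 are, with compounds at prescribed concentrations. Killing index scored from 0 (no effect) to 5 (death) at 30 days and 3 months. Plant heights ranged from about 50 to 100 cm.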

white clover = assay: Experiment 1 foliar application to naturally growing weeds; format: in vivo, Trifolium repens L.; settings: monosodium salt; for Reproduction-inhibiting effect: 4 months
Outline: as §2

warunasubi = assay: as above; format: in vivo, Solanum carolinensis L.; settings: 4 months, monosodium salt
Outline: as §3

cockspar grass = assay: as above; format: in vivo, Echinochloa Crusgalli P. Beauv.; settings: monosodium salt; for Reproduction-inhibiting effect: 2 months
Outline: as §3

water hyacinth = assay: Experiment 5 foliar application to water hyacinths; format: in vivo, Eichhornia crassipes Solms; settings: 3 months, listed as DL-AMPB monosodium salt, monosodium salt
Outline: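 Two plants floated in fertilized water per vessel, sprayed foliarly with 0.1 or 0.2% aqueous compound solutions at 100 liter per 10 are plus 0.1% octylphenyl polyoxyethanol. Killing index (0 no effect to 5 death) scored at 21 days and 3 months; reproduction inhibition scored (-) to (+++) at 3 months.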

manna grass = assay: Experiment 1 foliar application to naturally growing weeds; format: in vivo, Digitaria adsceudes Henr.; settings: monosodium salt; for Reproduction-inhibiting effect: 2 months
Outline: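 Foliar spray on field weeds at 150 liter per 10 are, compounds at prescribed concentrations plus 0.1% octylphenyl polyoxyethanol. Day 21: killing index 0–5 (5 = death). Reproduction scored (-) to (+++) (- = none): cockspar grass at 2 months, chigaya, azumanezasa and warunasubi at 4 months.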

kiichigo = assay: Experiment 3 foliar application to naturally growing shrubs; format: in vivo, Rubus palmatsu Thunb. forma coptophyllus Makino; settings: after 3 months
Outline: as §1

kumaichigo = assay: Experiment 2 foliar application in Japanese cypress afforested land; format: in vivo, Rubus crataegifolius Bunge; settings: 0.063%; after 30 days; monosodium salt
Outline: as §4

chigaya = assay: Experiment 1 foliar application to naturally growing weeds; format: in vivo, Imperata cylindrica Beauv.; settings: 4 months
Outline: as §3

hedge bindweed = assay: as above; format: in vivo, Calystegis hederacea Wall.; settings: 4 months, monosodium salt
Outline: as §2

lace shrub = assay: Experiment 3 foliar application to naturally growing shrubs; format: in vivo, Stephanandra incisa Zabel; settings: after 3 months
Outline: as §1

purple nutsedge = assay: Experiment 1 foliar application to naturally growing weeds; format: in vivo, Cyperus rotundus L.; settings: 4 months, monosodium salt
Outline: as §2

yamazakura = assay: Experiment 3 foliar application to naturally growing shrubs; format: in vivo, Prunus donarium Sieb. var. spontanae Makino; settings: after 3 months
Outline: as §1

For `CP(=O)(O)CCC(N)C(=O)O` (racemic) [DL-2-Amino-4-methylphosphinobutanoic acid monosodium salt], the Reproduction-inhibiting (Japanese bush cranberry; 0.05%) was “+++”, the Reproduction-inhibiting (Japanese bush cranberry; 0.1%) was “++” and the Reproduction-inhibiting (Japanese bush cranberry; 0.2%, monosodium salt) was “+ +”. For the same molecule, the Reproduction-inhibiting (torch azalea; 0.05%, monosodium salt) was “+++”, the Reproduction-inhibiting (torch azalea; 0.1%, monosodium salt) was “++” and the Reproduction-inhibiting (torch azalea; 0.2%) was “-”. For the same molecule, the Reproduction-inhibiting (oak; 0.05%, monosodium salt) was “+++”, the Reproduction-inhibiting (oak; 0.1%, monosodium salt) was “++” and the Reproduction-inhibiting (oak; 0.2%) was “-”. The Reproduction-inhibiting effect (yabugarashi; 0.05%) was “+++”, the Reproduction-inhibiting effect (yabugarashi; 0.1%) was “+++” and the Reproduction-inhibiting effect (yabugarashi; 0.2%) was “++”. The Reproduction-inhibiting (Japanese prickly ash; 0.05%, monosodium salt) was “+++”, the Reproduction-inhibiting (Japanese prickly ash; 0.1%, monosodium salt) was “++” and the Reproduction-inhibiting (Japanese prickly ash; 0.2%) was “-”. The Reproduction-inhibiting effect (azumanezasa; 0.05%, monosodium salt) was “+++”, the Reproduction-inhibiting effect (azumanezasa; 0.1%, monosodium salt) was “+” and the Reproduction-inhibiting effect (azumanezasa; 0.2%) was “-”. For the same molecule, the Killing index (chestnut) was 0.5, the Killing index (eulalia) was 2.5 and the Reproduction-inhibiting effect (white clover; 0.05%) was “+++”. The Reproduction-inhibiting effect (white clover; 0.1%) was “+++”, the Reproduction-inhibiting effect (white clover; 0.2%) was “+” and the “Killing index of Upperground parts” value (white clover; 0.2%, 21 days) was 4.5. For the same molecule, the Reproduction-inhibiting effect (warunasubi; 0.05%) was “+++”, the Reproduction-inhibiting effect (warunasubi; 0.1%) was “+++” and the Reproduction-inhibiting effect (warunasubi; 0.2%) was “+”. The Reproduction-inhibiting effect (cockspar grass; 0.05%) was “+ ++”, the Reproduction-inhibiting effect (cockspar grass; 0.1%) was “++” and the Reproduction-inhibiting effect (cockspar grass; 0.2%) was “±”. For the same molecule, the “Killing index of Upperground parts” value (cockspar grass; 0.2%, 21 days) was 4.5, the Reproduction-inhibiting effect (water hyacinth; 0.1%) was “++” and the Reproduction-inhibiting effect (water hyacinth; 0.2%) was “±”. For the same molecule, the Reproduction-inhibiting effect (manna grass; 0.05%) was “+++”, the Reproduction-inhibiting effect (manna grass; 0.1%) was “++” and the Reproduction-inhibiting effect (manna grass; 0.2%) was “±”. The “Killing index of Upperground parts” value (manna grass; 0.2%, 21 days) was 4.5, the Reproduction-inhibiting (kiichigo; 0.05%, monosodium salt) was “+++” and the Reproduction-inhibiting (kiichigo; 0.1%, monosodium salt) was “++”. For the same molecule, the Reproduction-inhibiting (kiichigo; 0.2%) was “-”, the Killing index (kumaichigo) was 1.5 and the Reproduction-inhibiting effect (chigaya; 0.05%, monosodium salt) was “++”. For the same molecule, the Reproduction-inhibiting effect (chigaya; 0.1%, monosodium salt) was “++”, the Reproduction-inhibiting effect (chigaya; 0.2%) was “-” and the Reproduction-inhibiting effect (hedge bindweed; 0.05%) was “+++”. For the same molecule, the Reproduction-inhibiting effect (hedge bindweed; 0.1%) was “+++”, the Reproduction-inhibiting effect (hedge bindweed; 0.2%) was “+++” and the Reproduction-inhibiting (lace shrub; 0.05%, monosodium salt) was “+++”. For the same molecule, the Reproduction-inhibiting (lace shrub; 0.1%, monosodium salt) was “++”, the Reproduction-inhibiting (lace shrub; 0.2%) was “-” and the Reproduction-inhibiting effect (purple nutsedge; 0.05%) was “+++”. For the same molecule, the Reproduction-inhibiting effect (purple nutsedge; 0.1%) was “+++”, the Reproduction-inhibiting effect (purple nutsedge; 0.2%) was “+” and the Reproduction-inhibiting (yamazakura; 0.05%, monosodium salt) was “+++”. The Reproduction-inhibiting (yamazakura; 0.1%, monosodium salt) was “++” and the Reproduction-inhibiting (yamazakura; 0.2%) was “-”.
